What was measured:
[1] = system: MES-induced seizure (full body tonic extension); assay: Maximal Electroshock Test (MES), anticonvulsant activity; format: in vivo, CF-1 male albino mice; details: oral; for MES @100 mpk: (number of mice with full body tonic extension prevented)/(total number of mice tested) / MES @100 mpk, result in words: 100 mg/kg; for MES @100 mpk, result in words: mice, time not given; for MES @ 300 mpk: (number of mice with full body tonic extension prevented)/(total number of mice tested): 300 mg/kg
Procedure: Anticonvulsant activity was determined using the MES test, run according to the procedure described in detail below. Swinyard E A, Woodhead J H, White H S, Franklin M R. Experimental selection, quantification, and evaluation of anticonvulsants. In Levy R H, et al., eds. Antiepileptic Drugs. 3rd ed. New York: Raven Press, 1989:85-102 CF-1 male albino mice (25-35 g) were fasted for 16 hours before testing. Mice were randomly selected into control and test groups, with the animals dosed with vehicle or test compound, at varying concentrations, respectively. On the study date, at 30 minutes prior to shock, the mice were orally dosed with vehicle (0.5% methylcellulose) or test compound (100-300 mg/kg). Seizures were induced by trans-corneal electric shock using a 60-Hz alternating current, 50 mA, delivered for 0.2 sec. The mice in the test groups were subjected to electrical stimulus at time intervals between 15 minutes and 4 hours following administration of test compound. […] The test was complete when the entire course of the convulsion has been observed (typically, less than 1 minute after electrical stimulation), and the mice were then immediately euthanized by carbon dioxide inhalation. Abolition of the full body tonic extensor component of the seizure was taken as the endpoint of the test. […] The ED50 value of the test compound (calculated when appropriate) was the calculated dose required to block the hind limb tonic-extensor component of the MES-induced seizure in 50% of the rodents tested. A probit analysis was used to calculate the ED50 and 95% fiducial limits (FL). Representative compounds of the present invention were tested according to the procedure described above, with results as listed in Table 6 below. Results are listed as (number of mice with full body tonic extension prevented)/(total number of mice tested) (@ a given time).

[2] = system: carbonic anhydrase; details: background statement, figure not given; cited from earlier work

Structure (SMILES)	MES @100 mpk: (number of mice with full body tonic extension prevented)/(total number of mice tested) ([1]; 0.5 h after dosing)	MES @100 mpk: (number of mice with full body tonic extension prevented)/(total number of mice tested) ([1]; 2 h after dosing)	MES @100 mpk: (number of mice with full body tonic extension prevented)/(total number of mice tested) ([1]; 4 h after dosing)	MES @100 mpk, result in words [1]	MES @ 300 mpk: (number of mice with full body tonic extension prevented)/(total number of mice tested) ([1]; 0.5 hr after dosing)	MES @ 300 mpk: (number of mice with full body tonic extension prevented)/(total number of mice tested) ([1]; 2 hr after dosing)	MES @ 300 mpk: (number of mice with full body tonic extension prevented)/(total number of mice tested) ([1]; 4 hr after dosing)	carbonic anhydrase inhibition [2]
NS(=O)(=O)NCc1csc2ccccc12 [Compound 1, N-(benzo[b]thien-3-ylmethyl)-sulfamide]	1/5 (0.5 h)	3/5 (2 h)	2/5 (4 h)					
NS(=O)(=O)NCc1coc2ccccc12 [Compound 6, N-(3-benzofuranylmethyl)-sulfamide]				inactive	5/5 (0.5 hr)	0/5 (2 hr)	0/5 (4 hr)	
Cn1cc(CNS(N)(=O)=O)c2ccccc21 [Compound 7, N-[(1-methyl-1H-indol-3-yl)methyl]-sulfamide]				inactive	5/5 (0.5 hr)	0/5 (2 hr)	0/5 (4 hr)	
NS(=O)(=O)NCc1csc2cccc(Br)c12 [Compound 17, N-[(4-bromobenzo[b]thien-3-yl)methyl]-sulfamide]					0/3 (0.5 hr)	0/3 (2 hr)	1/3 (4 hr)	
NS(=O)(=O)NCc1csc2ccc(F)cc12 [Compound 8, N-[(5-fluorobenzo[b]thien-3-yl)methyl]-sulfamide]	0/5 (0.5 h)	4/5 (2 h)	1/5 (4 h)					
CC1(C)O[C@@H]2[C@@H](CO[C@@]3(COS(N)(=O)=O)OC(C)(C)O[C@@H]23)O1 [Topiramate]								single digit micromolar
NS(=O)(=O)NCc1csc2ccc(Cl)cc12 [Compound 3, N-[(5-chlorobenzo[b]thien-3-yl)methyl]-sulfamide]				inactive	0/5 (0.5 hr)	3/5 (2 hr)	1/5 (4 hr)	
Cc1oc2ccccc2c1CNS(N)(=O)=O [Compound 13]	4/5 (0.5 h)	0/5 (2 h)	0/5 (4 h)					
NS(=O)(=O)NCc1cccc2ccccc12 [Compound 10, N-(1-naphthalenylmethyl)-sulfamide]	2/5 (0.5 h)	1/5 (2 h)	0/5 (4 h)					
NS(=O)(=O)NCc1csc2c(F)cccc12 [Compound 18, N-[(7-fluorobenzo[b]thien-3-yl)methyl]-sulfamide]					0/3 (0.5 hr)	2/3 (2 hr)	0/3 (4 hr)	
NS(=O)(=O)NCc1csc2ccc(Br)cc12 [Compound 15, N-[(5-bromobenzo[b]thien-3-yl)methyl]-sulfamide]					0/3 (0.5 hr)	0/3 (2 hr)	1/3 (4 hr)	
CC(NS(N)(=O)=O)c1csc2ccccc12 (stereo not shown) [Compound 9, N-(1-benzo[b]thien-3-ylethyl)-sulfamide]	1/5 (0.5 h)	0/5 (2 h)	0/5 (4 h)					

From patent US20060276528A1, “Novel benzo-fused heteroaryl sulfamide derivatives useful as anticonvulsant agents” (priority 2004, published 2006)
